Test system: aNPCs
Test: Neuronal differentiation of aNPCs with CD4+ T cells, T cell-conditioned medium or cytokines
Assay type: cell-based, mouse
Conditions: 5 days in culture with cytokine, concentrations as low as 1 ng/ml
Method: (xvii) Co-culturing of neural progenitor cells and T cells. CD4+ T cells were purified from lymph nodes of 8-week-old C57B16/J mice as previously described (Kipnis et al., 2004). T cells were activated in RPMI medium supplemented with L-glutamine (2 mM), 2-mercaptoethanol (5×10^−5 M), sodium pyruvate (1 mM), penicillin (100 IU/ml), streptomycin (100 μg/ml), nonessential amino acids (1 ml/100 ml), and autologous serum 2% (v/v) in the presence of mouse recombinant IL-2 (mrIL-2; 5 ng/ml) and soluble anti-CD28 and anti-CD3. antibodies (1 ng/ml). T cells were co-cultured (5×10^4 cells/well) with aNPCs (5×10^4 cells/well) for 5 d on cover slips coated with Matrigel (BD Biosciences) in 24-well plates. The cultures were then fixed with 2.5% paraformaldehyde in PBS for 30 min at room temperature and stained for neuronal markers.
We therefore sought to determine whether direct interaction between aNPCs and T cells would also result in an altered pattern of aNPC differentiation. To address this question, we activated CD4+ T cells in vitro by a cognate protocol (with anti-CD3 antibodies, anti-CD28 antibodies, and IL-2) for 24 h and then allowed their activation to continue in co-cultures with aNPCs in a transwell culture system. […] After 5 days in culture the aNPCs in the lower chamber were fixed and analyzed for the appearance of newly formed neurons. […]

Substance: IFN-γ: recombinant interferon-γ
- β-III-tubulin expression in aNPCs: could induce an increase in β-III-tubulin expression
